Biological target: T1, TNF-α (Homo sapiens, UniProt P01375)
T1 construct: Human TNF-α recombinant protein (Peprotech)
Assay: SPR (Biacore T200, hTNF-α immobilized on CM5); BLI gave KD […]; TNF-α-TNFR1 ELISA IC50 […]
Assay type: binding

T1 sequence (P01375 77-233): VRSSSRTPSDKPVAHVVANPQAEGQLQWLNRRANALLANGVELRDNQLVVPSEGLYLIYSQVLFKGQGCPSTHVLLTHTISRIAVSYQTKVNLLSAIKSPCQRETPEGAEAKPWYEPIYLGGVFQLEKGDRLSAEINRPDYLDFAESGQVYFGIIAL

Cc1cc(O)c2c(c1)C(=O)c1cc(O)cc(O)c1C2=O [emodin, 1,3,8-trihydroxy-6-methylanthraquinone]
Kd: ~26.5 µM

Source: paper PMC11896996, “Emodin mitigates rheumatoid arthritis through direct binding to TNF-α” (Frontiers in Pharmacology, 2025)
